Measurements as given in PubChem BioAssay AID328 (DTP/NCI, 2004).
Several values for one entry are separate records, joined by “and”; a condition that tells them apart may be missing. Equal values may be shown once. Inconclusive results and toxic doses are left out. How the source made its calls: active means survival T/C of 150% or more; inactive means T/C below 125% in these data. Residues, ends and D or L forms follow the SMILES beside them. *: point of attachment. Cbz = O=C(OCc1ccccc1)*; Bn = c1ccc(C*)cc1

Tested on: BDF1 mice, P388 leukemia ip, median survival T/C
Assay: NCI In Vivo Anticancer Drug Screen. Data for tumor model P388 Leukemia (intraperitoneal) in B6D2F1 (BDF1) mice
Settings: endpoint: median survival time, higher = longer survival
Procedure, shortened: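 Each value expresses how treatment altered survival: treated-mouse outcome over vehicle-mouse outcome, both groups bearing the transplanted tumour.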

[1] = dose: 100.0 mg/kg/injection, schedule: Q04DX003 (ip), vehicle: saline
[2] = dose: 200.0 mg/kg/injection, schedule: Q01DX009 (ip), vehicle: saline with Tween-80
[3] = dose: 200.0 mg/kg/injection, schedule: Q04DX003 (ip), vehicle: saline
[4] = dose: 400.0 mg/kg/injection, schedule: Q01DX009 (ip), vehicle: saline with Tween-80
[5] = dose: 400.0 mg/kg/injection, schedule: Q04DX003 (ip), vehicle: saline
[6] = dose: 50.0 mg/kg/injection, schedule: Q01DX009 (ip), vehicle: saline with Tween-80
[7] = dose: 100.0 mg/kg/injection, schedule: Q01DX009 (ip), vehicle: saline with Tween-80
[8] = dose: 50.0 mg/kg/injection, schedule: Q01DX009 (ip), vehicle: saline
[9] = dose: 100.0 mg/kg/injection, schedule: Q01DX009 (ip), vehicle: saline
[10] = dose: 25.0 mg/kg/injection, schedule: Q01DX009 (ip), vehicle: saline
[11] = dose: 25.0 mg/kg/injection, schedule: Q04DX003 (ip), vehicle: saline
[12] = dose: 150.0 mg/kg/injection, schedule: Q01DX009 (ip), vehicle: saline
[13] = dose: 100.0 mg/kg/injection, schedule: Q04DX003 (ip), vehicle: Klucel (hydroxypropylcellulose) (HPC)
[14] = dose: 200.0 mg/kg/injection, schedule: Q04DX003 (ip), vehicle: Klucel (hydroxypropylcellulose) (HPC)
[15] = dose: 100.0 mg/kg/injection, schedule: Q04DX003 (ip), vehicle: saline with Tween-80
[16] = dose: 200.0 mg/kg/injection, schedule: Q04DX003 (ip), vehicle: saline with Tween-80
[17] = dose: 400.0 mg/kg/injection, schedule: Q04DX003 (ip), vehicle: saline with Tween-80

Measured: T/C

CC#CCOCC1CN(c2ccccc2)C(=O)O1 (stereo unspecified)
inactive: [1] 92 % of control | [2] 100 % of control | [3] 92 % of control | [4] 100 % of control | [5] 100 % of control

CN(C)c1ccc(/C=N/Nc2ccc(C(C#N)=C(C#N)C#N)cc2)cc1
inactive: [6] 101 % of control | [7] 89 % of control | [2] 86 % of control

CCCCCCCCCCCCC(C(=O)O)C1C=CCC1 (stereo unspecified)
inactive: dose: 100.0 mg/kg/injection, schedule: Q01DX001 (ip), vehicle: other 100 % of control | dose: 200.0 mg/kg/injection, schedule: Q01DX001 (ip), vehicle: other 100 % of control | dose: 400.0 mg/kg/injection, schedule: Q01DX001 (ip), vehicle: other 100 % of control

Cc1cc(C)c(C#N)c(=O)[nH]1
inactive: [8] 99 % of control | [9] 94 % of control

O=C(Nc1ccc(F)cc1)C(F)(F)F
inactive: [6] 106 % of control | [7] 98 % of control | [2] 105 % of control

O=C(Nc1ccc(NC2=NCCN2)cc1)c1ccc(C(=O)Nc2ccc(NC3=NCCN3)cc2)cc1
active: dose: 2.0 mg/kg/injection, schedule: Q01DX010 (ip), vehicle: saline 165 % of control and 180 % of control | dose: 4.0 mg/kg/injection, schedule: Q01DX010 (ip), vehicle: saline 260 % of control and 205 % of control | dose: 8.0 mg/kg/injection, schedule: Q01DX010 (ip), vehicle: saline 260 % of control and 285 % of control
inactive: dose: 16.0 mg/kg/injection, schedule: Q01DX010 (ip), vehicle: saline 105 % of control and 110 % of control

N#Cc1c(F)c(F)c(C#N)c(F)c1F
inactive: dose: 1.25 mg/kg/injection, schedule: Q01DX009 (ip), vehicle: Klucel (hydroxypropylcellulose) (HPC) 100 % of control | dose: 2.5 mg/kg/injection, schedule: Q01DX009 (ip), vehicle: Klucel (hydroxypropylcellulose) (HPC) 104 % of control | dose: 5.0 mg/kg/injection, schedule: Q01DX009 (ip), vehicle: Klucel (hydroxypropylcellulose) (HPC) 108 % of control | dose: 10.0 mg/kg/injection, schedule: Q01DX009 (ip), vehicle: Klucel (hydroxypropylcellulose) (HPC) 104 % of control

CC(C)c1nsc2c1C(=O)NC(C(C)(C)C)N2 (stereo unspecified)
inactive: [6] 109 % of control | [7] 89 % of control | [2] 95 % of control

O=CC1(C(O)C2SCCCS2)SCCCS1 (stereo unspecified)
inactive: dose: 12.5 mg/kg/injection, schedule: Q01DX001 (ip), vehicle: other 95 % of control | dose: 25.0 mg/kg/injection, schedule: Q01DX001 (ip), vehicle: other 104 % of control | dose: 50.0 mg/kg/injection, schedule: Q01DX001 (ip), vehicle: other 109 % of control

COc1ccc(C2NC(=O)NC2=O)cc1OC (stereo unspecified)
inactive: dose: 50.0 mg/kg/injection, schedule: Q01DX001 (ip), vehicle: saline sonified 100 % of control | dose: 100.0 mg/kg/injection, schedule: Q01DX001 (ip), vehicle: saline sonified 100 % of control | dose: 200.0 mg/kg/injection, schedule: Q01DX001 (ip), vehicle: saline sonified 100 % of control

C=CCOP(OCC=C)OCC=C
inactive: [10] 90 % of control | [11] 95 % of control | [8] 90 % of control | [9] 104 % of control | [1] 100 % of control

CC(C)c1ncc(CCCN=C(N)N)[nH]c1=O
inactive: dose: 37.5 mg/kg/injection, schedule: Q01DX009 (ip), vehicle: saline 98 % of control | dose: 75.0 mg/kg/injection, schedule: Q01DX009 (ip), vehicle: saline 94 % of control | [12] 90 % of control

COC(=O)C1=C(C(=O)OC)C2C=CC1C1CC(OC(C)=O)C21 (stereo unspecified)
inactive: [6] 113 % of control | [7] 113 % of control | [2] 101 % of control

COc1cc2cc(c1Cl)NC(=O)/C=C/C(C)=C/[C@H](C)[C@@H]1C[C@@](O)(NC(=O)O1)[C@H](OC)C=C/C=C(\C)C2
inactive: dose: 1.6 micrograms/kg/injection, schedule: Q01DX009 (ip), vehicle: saline + alcohol 104 % of control | dose: 3.1 micrograms/kg/injection, schedule: Q01DX009 (ip), vehicle: saline + alcohol 95 % of control | dose: 6.2 micrograms/kg/injection, schedule: Q01DX009 (ip), vehicle: saline + alcohol 87 % of control | dose: 25.0 micrograms/kg/injection, schedule: Q01DX009 (ip), vehicle: saline + alcohol 108 % of control | dose: 50.0 micrograms/kg/injection, schedule: Q01DX009 (ip), vehicle: saline + alcohol 120 % of control | dose: 100.0 micrograms/kg/injection, schedule: Q01DX009 (ip), vehicle: saline + alcohol 120 % of control | dose: 200.0 micrograms/kg/injection, schedule: Q01DX009 (ip), vehicle: saline + alcohol 104 % of control

O=C(O)C(CCO)C(=O)C(F)(F)F (stereo unspecified)
inactive: dose: 25.0 mg/kg/injection, schedule: Q01DX009 (ip), vehicle: other 98 % of control | dose: 50.0 mg/kg/injection, schedule: Q01DX009 (ip), vehicle: other 98 % of control | dose: 100.0 mg/kg/injection, schedule: Q01DX009 (ip), vehicle: other 91 % of control

c1cncc(-c2ncnc3c2Cc2ccccc2-3)c1
inactive: dose: 75.0 mg/kg/injection, schedule: Q01DX009 (ip), vehicle: Klucel (hydroxypropylcellulose) (HPC) 100 % of control | dose: 150.0 mg/kg/injection, schedule: Q01DX009 (ip), vehicle: Klucel (hydroxypropylcellulose) (HPC) 113 % of control

CC(C)N1c2c(nc(N)[nH]c2=O)NCC1CNc1ccc(C(=O)NC(CCC(=O)O)C(=O)O)cc1 (stereo unspecified)
inactive: [9] 105 % of control | [12] 90 % of control | dose: 200.0 mg/kg/injection, schedule: Q01DX009 (ip), vehicle: saline 97 % of control | dose: 300.0 mg/kg/injection, schedule: Q01DX009 (ip), vehicle: saline 93 % of control | dose: 400.0 mg/kg/injection, schedule: Q01DX009 (ip), vehicle: saline 110 % of control

Nc1c(Br)cc(Br)c(C(=O)O)c1Br
inactive: dose: 50.0 mg/kg/injection, schedule: Q04DX003 (ip), vehicle: Klucel (hydroxypropylcellulose) (HPC) 100 % of control | [13] 100 % of control | [14] 95 % of control

C[C@H]1C[C@@H]2[C@H]([C@@H](O)C[C@@]3(C)[C@H]2CC[C@]3(O)C(=O)CO)[C@@]2(C)C=CC(=O)C=C12
inactive: [2] 104 % of control | [4] 90 % of control

Clc1nc2nnnn2c2ccccc12
inactive: dose: 20.0 mg/kg/injection, schedule: Q01DX009 (ip), vehicle: saline 94 % of control | dose: 40.0 mg/kg/injection, schedule: Q01DX009 (ip), vehicle: saline 95 % of control

CCOC(=O)NCCCNC(=O)OCC
inactive: [1] 115 % of control | [3] 115 % of control | [5] 105 % of control

Nc1ncnc2c1cnn2CCCl
inactive: [15] 122 % of control | [16] 118 % of control

O=C1c2ccccc2-c2ccc(Br)c3cccc1c23
inactive: dose: 50.0 mg/kg/injection, schedule: Q01DX009 (ip), vehicle: Klucel (hydroxypropylcellulose) (HPC) 100 % of control | dose: 100.0 mg/kg/injection, schedule: Q01DX009 (ip), vehicle: Klucel (hydroxypropylcellulose) (HPC) 100 % of control | dose: 200.0 mg/kg/injection, schedule: Q01DX009 (ip), vehicle: Klucel (hydroxypropylcellulose) (HPC) 100 % of control

O=C1CN(C(=O)CN2C(=O)c3ccccc3C2=O)C2(CCCCC2)O1
inactive: [15] 100 % of control | [17] 100 % of control

CCC(=O)/C=C/c1ccc(Cl)cc1
inactive: [6] 110 % of control | [7] 109 % of control | [2] 107 % of control

O=C(Nc1ccc2c(c1)OCO2)O/N=C\c1cccnc1
inactive: dose: 50.0 mg/kg/injection, schedule: Q04DX003 (ip), vehicle: saline with Tween-80 100 % of control | [15] 109 % of control | [16] 109 % of control

O=C(CNC(c1ccccc1)(c1ccccc1)c1ccccc1)OC(c1ccccc1)c1ccccc1
inactive: [15] 104 % of control | [16] 104 % of control | [17] 100 % of control

CC/C(=C\c1ccc(Cl)cc1)[N+](=O)[O-]
inactive: dose: 12.5 mg/kg/injection, schedule: Q01DX009 (ip), vehicle: saline 97 % of control | [10] 99 % of control | [11] 87 % of control | [8] 99 % of control | dose: 50.0 mg/kg/injection, schedule: Q04DX003 (ip), vehicle: saline 104 % of control | [1] 104 % of control and 109 % of control

CC(C)CC(NC(=O)C1CCCN1C(=O)C(CSCc1ccccc1)NC(=O)OCc1ccccc1)C(=O)NCC(N)=O (stereo unspecified) (Cbz-C(Bn)PLG-NH2; configuration not given here)
inactive: [13] 99 % of control | [14] 95 % of control | dose: 400.0 mg/kg/injection, schedule: Q04DX003 (ip), vehicle: Klucel (hydroxypropylcellulose) (HPC) 87 % of control
